Measurements from PMC6757289, “Design and Characterization of SGK3-PROTAC1, an Isoform Specific SGK3 Kinase PROTAC Degrader” (ACS Chemical Biology, 2019).

How the values were obtained:
Assay type in all cases: cell-based
[1] = biological target: T1, SGK1 (Homo sapiens, UniProt O00141); assay: SGK1 protein level in HEK293 cells, immunoblot; settings: HEK293, 48 h
T1 sequence (O00141 1-431): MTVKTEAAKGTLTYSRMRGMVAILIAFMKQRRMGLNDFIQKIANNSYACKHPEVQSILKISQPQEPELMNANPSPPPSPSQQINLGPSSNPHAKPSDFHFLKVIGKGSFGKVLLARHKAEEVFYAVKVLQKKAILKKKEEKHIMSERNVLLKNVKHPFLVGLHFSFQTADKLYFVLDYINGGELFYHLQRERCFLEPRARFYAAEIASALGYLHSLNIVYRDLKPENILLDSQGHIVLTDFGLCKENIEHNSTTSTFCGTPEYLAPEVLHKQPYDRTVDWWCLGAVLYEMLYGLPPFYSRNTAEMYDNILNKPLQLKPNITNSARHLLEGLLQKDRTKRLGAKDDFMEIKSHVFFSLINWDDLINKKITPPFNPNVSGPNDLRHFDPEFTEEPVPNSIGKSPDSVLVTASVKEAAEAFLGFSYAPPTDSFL
Experimental: A medium length linker composed of three PEG units was used in the first instance (Figure 1B and C). […] After 48 h of PROTAC treatment, cell lysates were analyzed by immunoblot analysis, and protein expression under each condition was quantified relative to the DMSO-only control. […] DAT1 reduced SGK3 expression by 60% at 1 μM and 75% at 10 μM after 48 h (Figure 1D). […] As expected, inhibition of CUL2 neddylation by means of the inhibitor MLN4924 (3 μM) or proteasome inhibition (MG132, 50 μM) blocked DAT1-induced degradation of SGK3 (Figure S1C).
All cell treatments were carried out as described in figure legends, to a final DMSO concentration of 0.1% (v/v). Lysates were quantified. Immunoblotting was performed using standard procedures, described in brief below. Lysate concentration was quantified by Bradford Assay, and 10 μg of lysate was loaded in the LDS sample buffer for SDS-PAGE electrophoresis on Novex 4–12% Bis–Tris gels. Proteins were electrophoretically transferred onto nitrocellulose membranes (Amersham Protran 0.45 μm NC; GE Healthcare) at 80 V for 80 min on ice in transfer buffer. […] The signal was produced with near-infrared secondary antibodies and detected using a Licor Biosciences Odyssey System, and the signal was quantified in Image Studio Lite.

[2] = biological target: T1, SGK1; assay: SGK1 degradation in JIMT1 cells, immunoblot; settings: JIMT1, up to 3 μM
Experimental: Figure 3 Characterization of cellular activities of SGK3-PROTAC1 and cisSGK3-PROTAC1. (A) HEK293 cells were first treated for 8 h with 0.03–3 μM SGK3-PROTAC1 and cisSGK3-PROTAC1. One hour before lysis, cells were treated with 3 μM AZD5363. Lysates were subjected to immunoblot analysis with the indicated antibodies. […] Lysates were subjected to immunoblot analysis with the indicated antibodies. (C) HEK293 cells were treated for up to 48 h with SGK3-PROTAC1 (0.3 μM), and lysates were analyzed by immunoblot analysis using the indicated antibodies. (D) HEK293 cells were treated for 24 h with SGK3-PROTAC1. Cells were washed three times with DMEM to wash out the compound, and recovery of SGK3 expression protein was analyzed by immunoblot analysis. (E–G) As in A except that CAMA-1 (E), ZR-75-1 (F), and JIMT-1 (G) cells were employed rather than HEK293 cells. […]
All cell treatments were carried out as described in figure legends, to a final DMSO concentration of 0.1% (v/v). Lysates were quantified. […] Lysate concentration was quantified by Bradford Assay, and 10 μg of lysate was loaded in the LDS sample buffer for SDS-PAGE electrophoresis on Novex 4–12% Bis–Tris gels. […] The signal was produced with near-infrared secondary antibodies and detected using a Licor Biosciences Odyssey System, and the signal was quantified in Image Studio Lite.

[3] = biological target: T2, SGK3 (Homo sapiens, UniProt Q96BR1); assay: SGK3 degradation in ZR-75-1 cells, immunoblot; settings: for SGK3 expression: ZR-75-1, 5 days 1 μM GDC0941 or AZD5363, 0.3 μM for 5 days or 8 h
T2 sequence (Q96BR1 1-496): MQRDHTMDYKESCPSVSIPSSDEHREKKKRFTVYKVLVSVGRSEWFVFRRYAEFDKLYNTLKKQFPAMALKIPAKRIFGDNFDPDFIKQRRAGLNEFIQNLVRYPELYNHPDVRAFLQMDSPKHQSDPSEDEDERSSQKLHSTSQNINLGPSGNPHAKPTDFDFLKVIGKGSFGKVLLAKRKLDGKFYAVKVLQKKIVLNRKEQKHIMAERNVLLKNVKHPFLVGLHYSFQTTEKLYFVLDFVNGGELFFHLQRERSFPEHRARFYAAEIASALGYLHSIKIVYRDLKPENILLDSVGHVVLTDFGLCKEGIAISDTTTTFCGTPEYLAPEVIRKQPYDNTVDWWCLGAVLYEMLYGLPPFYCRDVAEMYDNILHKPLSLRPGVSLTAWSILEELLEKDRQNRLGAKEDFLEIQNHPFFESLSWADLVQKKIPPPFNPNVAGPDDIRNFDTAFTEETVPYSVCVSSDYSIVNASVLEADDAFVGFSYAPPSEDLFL
Experimental: Figure 3 Characterization of cellular activities of SGK3-PROTAC1 and cisSGK3-PROTAC1. (A) HEK293 cells were first treated for 8 h with 0.03–3 μM SGK3-PROTAC1 and cisSGK3-PROTAC1. One hour before lysis, cells were treated with 3 μM AZD5363. Lysates were subjected to immunoblot analysis with the indicated antibodies. […] Lysates were subjected to immunoblot analysis with the indicated antibodies. (C) HEK293 cells were treated for up to 48 h with SGK3-PROTAC1 (0.3 μM), and lysates were analyzed by immunoblot analysis using the indicated antibodies. (D) HEK293 cells were treated for 24 h with SGK3-PROTAC1. Cells were washed three times with DMEM to wash out the compound, and recovery of SGK3 expression protein was analyzed by immunoblot analysis. (E–G) As in A except that CAMA-1 (E), ZR-75-1 (F), and JIMT-1 (G) cells were employed rather than HEK293 cells.
Figure 5 SGK3-PROTAC1-mediated degradation of SGK3 inhibits Akt-independent activation of mTORC1 in cancer cell lines treated with Akt or PI3K inhibitors. CAMA-1 (A, C) or ZR-75-1 (B, D) were treated for 5 days with 1 μM GDC0941 (A, B) or 1 μM AZD5363 (C, D). Cells were treated with the compounds indicated for either 5 days or 8 h before lysis; cells were treated with the compounds indicated. Cell lysates were subject to immunoblot analysis with the indicated antibodies.
All cell treatments were carried out as described in figure legends, to a final DMSO concentration of 0.1% (v/v). Lysates were quantified. Immunoblotting was performed using standard procedures, described in brief below. Lysate concentration was quantified by Bradford Assay, and 10 μg of lysate was loaded in the LDS sample buffer for SDS-PAGE electrophoresis on Novex 4–12% Bis–Tris gels. Proteins were electrophoretically transferred onto nitrocellulose membranes (Amersham Protran 0.45 μm NC; GE Healthcare) at 80 V for 80 min on ice in transfer buffer. Transferred membranes were blocked with 5% (w/v) nonfat dry milk dissolved in TBS-T [20 mM Tris/HCl, pH 7.5, 150 mM NaCl, and 0.1% (v/v) Tween 20] at RT for 30 min, before incubation with the primary antibody overnight at 4 °C. The signal was produced with near-infrared secondary antibodies and detected using a Licor Biosciences Odyssey System, and the signal was quantified in Image Studio Lite.

SGK1 level ([1]; up to 10 μM)	SMILES	SGK1 level ([1]; 0.1 μM)	degradation of SGK1 [2]	concentration inducing degradation of SGK3 ([3]; ZR-75-1, 8 h)	SGK3 expression [3]	degradation of SGK3 ([3]; ZR-75-1, 8 h, 0.03–3 μM)
–	Cc1ccc(F)c(S(=O)(=O)Nc2ccc(-c3nc(OC[C@H]4CN(CCCCCCOCCOCCOCC(=O)N[C@H](C(=O)N5C[C@H](O)C[C@H]5C(=O)NCc5ccc(-c6scnc6C)cc5)C(C)(C)C)CCO4)c4cn[nH]c4n3)cc2)c1 [SGK3-PROTAC1]	without effecting	failed to induce degradation of SGK1	> 0.1 µM	substantially reduced	–
not significantly impacted	Cc1ccc(F)c(S(=O)(=O)Nc2ccc(-c3nc(OC[C@H]4CN(CCOCCOCCOCC(=O)N[C@H](C(=O)N5C[C@H](O)C[C@H]5C(=O)NCc5ccc(-c6scnc6C)cc5)C(C)(C)C)CCO4)c4cn[nH]c4n3)cc2)c1 [DAT1]	–	–	–	–	–
–	Cc1ccc(F)c(S(=O)(=O)Nc2ccc(-c3nc(OC[C@H]4CN(CCCCCCOCCOCCOCC(=O)N[C@H](C(=O)N5C[C@@H](O)C[C@H]5C(=O)NCc5ccc(-c6scnc6C)cc5)C(C)(C)C)CCO4)c4cn[nH]c4n3)cc2)c1 [cisSGK3-PROTAC1]	–	–	–	no significant effect	no impact
